From ChEMBL document CHEMBL4431372, “Optimization of a Fragment-Based Screening Hit toward Potent DOT1L Inhibitors Interacting in an Induced Binding Pocket” (ACS Med Chem Lett, 2016)

Tests used:
[1] = target: T1, Histone-lysine N-methyltransferase, H3 lysine-79 specific (Homo sapiens, UniProt Q8TEK3); test: Inhibition of human DOTL1 (2 to 416 residues)-mediated methylation of nucleosome preincubated for 30 mins followed by addition of S-[methyl-3H-] adenosyl-L-methionine and nucleosome measured after 180 mins by scintillation proximity assay
T1 sequence (Q8TEK3 whole entry, the tested form may be a part): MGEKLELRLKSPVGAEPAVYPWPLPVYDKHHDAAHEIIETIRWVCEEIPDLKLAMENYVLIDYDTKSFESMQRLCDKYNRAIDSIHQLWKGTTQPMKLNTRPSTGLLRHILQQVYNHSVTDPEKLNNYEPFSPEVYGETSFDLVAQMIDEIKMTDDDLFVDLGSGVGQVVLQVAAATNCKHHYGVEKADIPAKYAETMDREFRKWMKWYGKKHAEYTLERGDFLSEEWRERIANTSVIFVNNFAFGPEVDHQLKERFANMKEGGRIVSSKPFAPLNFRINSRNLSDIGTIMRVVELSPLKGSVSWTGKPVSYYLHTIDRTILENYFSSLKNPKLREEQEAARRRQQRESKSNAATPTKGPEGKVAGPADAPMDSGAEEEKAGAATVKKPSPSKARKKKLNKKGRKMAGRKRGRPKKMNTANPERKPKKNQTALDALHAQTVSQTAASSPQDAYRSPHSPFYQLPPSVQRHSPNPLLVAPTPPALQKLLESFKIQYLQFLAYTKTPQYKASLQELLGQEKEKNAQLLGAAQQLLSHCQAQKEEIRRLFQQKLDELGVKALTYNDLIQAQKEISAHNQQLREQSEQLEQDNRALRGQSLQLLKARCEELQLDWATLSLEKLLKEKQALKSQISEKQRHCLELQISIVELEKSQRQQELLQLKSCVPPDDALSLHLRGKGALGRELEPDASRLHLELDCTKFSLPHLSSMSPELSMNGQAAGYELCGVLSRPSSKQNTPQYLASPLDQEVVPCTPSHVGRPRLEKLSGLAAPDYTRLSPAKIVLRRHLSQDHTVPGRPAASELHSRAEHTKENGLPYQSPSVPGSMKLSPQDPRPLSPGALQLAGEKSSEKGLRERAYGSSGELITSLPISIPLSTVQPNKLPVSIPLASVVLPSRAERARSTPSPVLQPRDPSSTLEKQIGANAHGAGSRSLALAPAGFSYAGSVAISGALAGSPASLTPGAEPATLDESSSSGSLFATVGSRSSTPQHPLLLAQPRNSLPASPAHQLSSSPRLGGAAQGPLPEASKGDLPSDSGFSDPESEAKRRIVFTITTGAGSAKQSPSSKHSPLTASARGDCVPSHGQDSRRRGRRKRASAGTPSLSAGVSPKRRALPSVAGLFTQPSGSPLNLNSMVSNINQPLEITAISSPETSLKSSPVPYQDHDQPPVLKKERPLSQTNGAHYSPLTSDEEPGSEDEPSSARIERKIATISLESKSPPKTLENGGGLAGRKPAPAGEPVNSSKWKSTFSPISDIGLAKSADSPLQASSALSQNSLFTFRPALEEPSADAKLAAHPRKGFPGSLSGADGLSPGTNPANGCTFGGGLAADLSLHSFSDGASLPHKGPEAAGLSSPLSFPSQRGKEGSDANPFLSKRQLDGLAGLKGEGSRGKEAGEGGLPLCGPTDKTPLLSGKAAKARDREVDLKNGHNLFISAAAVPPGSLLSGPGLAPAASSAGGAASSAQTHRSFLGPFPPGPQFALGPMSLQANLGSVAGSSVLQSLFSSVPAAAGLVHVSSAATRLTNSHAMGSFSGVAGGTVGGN

[2] = target: T1, Histone-lysine N-methyltransferase, H3 lysine-79 specific; test: Binding affinity to biotinylated Avi tagged human DoT1L (2 to 416 residues) by SPR analysis

**Q.** What does the source list for `CNC(=O)c1cc(C(=O)c2c(Cl)cccc2Cl)c[nH]1`?
**A.** IC50 [1]: 320 µM; Kd [2]: 50 µM

**Q.** `CN(c1ccc2ncccc2c1)c1c(Cl)cccc1Cl` was tested. Which IC50 [1] did it give?
**A.** 98 µM

**Q.** For `Cc1ccc(C#CCN(c2ccc3ncnc(N)c3c2)c2c(Cl)cccc2Cl)nc1`, which IC50 [1] is on record?
**A.** 0.047 µM

**Q.** With `Cn1cnc2ccc(N(CC#Cc3cccnc3)c3c(Cl)cccc3Cl)cc2c1=O` as the compound, how does the IC50 [1] read?
**A.** 0.84 µM

**Q.** With `O=C(c1ccc2ncccc2c1)c1c(Cl)cccc1Cl` as the compound, how does the IC50 [1] read?
**A.** 139 µM

**Q.** Which IC50 [1] does the source give for `Nc1ncnc2ccc(N(CC#CC(O)c3nccn3CCO)c3c(Cl)cccc3Cl)cc12` (stereo unspecified) here?
**A.** 0.014 µM

**Q.** How did the IC50 [1] turn out when `C#CCN(c1ccc2ncnc(N)c2c1)c1c(Cl)cccc1Cl` was run?
**A.** 0.92 µM

**Q.** Which IC50 [1] does the source give for `Cc1ncc(C#CCN(c2ccc3ncn(C)c(=O)c3c2)c2c(Cl)cccc2Cl)cn1` here?
**A.** 0.089 µM

**Q.** Which IC50 [1] does the source give for `COc1ccnc2ccc(N(C)c3c(Cl)cccc3Cl)cc12` here?
**A.** 39 µM

**Q.** How did the IC50 [1] turn out when `CC(=O)Nc1cncc(-c2cc(C(=O)c3c(Cl)cccc3Cl)c[nH]2)c1` was run?
**A.** 4.3 µM
